ChEMBL document CHEMBL4425149, “Lead optimization of a pyrazolo[1,5-a]pyrimidin-7(4H)-one scaffold to identify potent, selective and orally bioavailable KDM5 inhibitors suitable for in vivo biological studies” (Bioorg Med Chem Lett, 2016)
Activity calls are given as the source filed them. The calls are words filed in the database; no cut-off is given here.

Legend:
[1] = target: Lysine-specific demethylase 5A (Homo sapiens, UniProt P29375); experiment: Inhibition of KDM5A (unknown origin)
[2] = Inhibition of KDM5 in human PC9 cells assessed as demethylation of H3K4Me3; type: cell-based; details: PC-9
[3] = Protein binding in human plasma; type: ADME, cell-free; details: read-out: PPB (converted)
[4] = Octanol-aqueous buffer distribution coefficient, log D of the compound at pH 7.4; type: physicochemical
[5] = Oral bioavailability in CD-1 mouse at 5 mg/kg; type: ADME, organism-based; details: in vivo
[6] = Volume of distribution in CD-1 mouse at 1 mg/kg, iv or 5 mg/kg, po; type: ADME, organism-based; details: in vivo
[7] = Half life in CD-1 mouse at 1 mg/kg, iv or 5 mg/kg, po; type: ADME, organism-based; details: in vivo
[8] = Clearance in CD-1 mouse plasma at 1 mg/kg, iv or 5 mg/kg, po; type: ADME, organism-based
[9] = Dissociation constant, pKa of the compound; type: physicochemical
[10] = Dissociation constant, pKa of the compound at pH 7.4; type: physicochemical
[11] = target: Lysine-specific demethylase 3B (Homo sapiens) (UniProt Q7LBC6); experiment: Inhibition of KDM3B (unknown origin)
[12] = fCmax in mouse at 50 mg/kg, po bid; type: ADME, organism-based; details: in vivo
[13] = target: Lysine-specific demethylase 5B (Homo sapiens, UniProt Q9UGL1); experiment: Inhibition of KDM5B (unknown origin)
[14] = target: Lysine-specific histone demethylase 1A (Homo sapiens) (UniProt O60341); experiment: Inhibition of KDM1A (unknown origin)
[15] = target: Histone lysine demethylase PHF8 (Homo sapiens) (UniProt Q9UPP1); experiment: Inhibition of KDM7B (unknown origin)
[16] = Cmax in mouse at 50 mg/kg, po bid; type: ADME, organism-based; parameters: dose 50 mg/kg, route oral; details: in vivo
[17] = Protein binding in mouse plasma; type: ADME, cell-free; details: read-out: PPB (converted)
[18] = target: Lysine-specific demethylase 5C (Homo sapiens, UniProt P41229); experiment: Inhibition of KDM5C (unknown origin)
[19] = target: T1, Lysine-specific demethylase 2B (Homo sapiens) (UniProt Q8NHM5); experiment: Inhibition of KDM2B (unknown origin)
T1 sequence (whole entry): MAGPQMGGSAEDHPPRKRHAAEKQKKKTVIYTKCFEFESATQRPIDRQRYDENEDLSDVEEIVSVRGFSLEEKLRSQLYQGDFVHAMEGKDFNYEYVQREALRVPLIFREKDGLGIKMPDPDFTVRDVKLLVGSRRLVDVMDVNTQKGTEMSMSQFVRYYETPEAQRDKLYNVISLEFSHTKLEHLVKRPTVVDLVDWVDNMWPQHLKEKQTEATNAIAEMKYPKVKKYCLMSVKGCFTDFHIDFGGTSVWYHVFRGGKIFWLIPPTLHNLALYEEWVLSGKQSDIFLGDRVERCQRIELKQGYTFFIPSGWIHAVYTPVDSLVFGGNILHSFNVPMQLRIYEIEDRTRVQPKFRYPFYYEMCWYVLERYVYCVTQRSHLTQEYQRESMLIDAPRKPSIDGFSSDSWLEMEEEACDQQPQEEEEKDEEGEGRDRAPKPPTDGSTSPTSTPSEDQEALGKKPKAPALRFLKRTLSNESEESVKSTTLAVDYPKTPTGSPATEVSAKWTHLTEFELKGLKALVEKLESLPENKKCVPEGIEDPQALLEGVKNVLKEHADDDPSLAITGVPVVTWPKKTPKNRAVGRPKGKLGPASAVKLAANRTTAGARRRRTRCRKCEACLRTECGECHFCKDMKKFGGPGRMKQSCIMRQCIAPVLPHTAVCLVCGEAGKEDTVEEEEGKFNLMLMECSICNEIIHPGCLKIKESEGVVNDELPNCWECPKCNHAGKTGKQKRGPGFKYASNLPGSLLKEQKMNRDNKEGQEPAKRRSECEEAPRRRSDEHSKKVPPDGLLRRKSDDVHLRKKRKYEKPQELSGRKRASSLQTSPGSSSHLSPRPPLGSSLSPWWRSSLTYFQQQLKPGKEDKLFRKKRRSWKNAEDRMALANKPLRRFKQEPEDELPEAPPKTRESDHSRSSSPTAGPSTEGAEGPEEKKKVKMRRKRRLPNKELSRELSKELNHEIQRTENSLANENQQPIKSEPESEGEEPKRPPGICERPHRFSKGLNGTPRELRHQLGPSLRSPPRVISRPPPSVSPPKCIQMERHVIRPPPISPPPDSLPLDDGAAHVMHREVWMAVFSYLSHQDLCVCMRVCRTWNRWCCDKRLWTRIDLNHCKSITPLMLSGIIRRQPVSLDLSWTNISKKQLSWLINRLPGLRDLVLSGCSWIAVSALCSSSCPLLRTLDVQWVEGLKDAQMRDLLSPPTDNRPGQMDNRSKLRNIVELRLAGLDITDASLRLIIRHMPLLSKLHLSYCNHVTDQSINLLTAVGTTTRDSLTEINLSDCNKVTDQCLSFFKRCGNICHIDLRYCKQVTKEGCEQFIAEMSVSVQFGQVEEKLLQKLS

[20] = target: Lysine-specific demethylase 6A (Homo sapiens) (UniProt O15550); experiment: Inhibition of KDM6A (unknown origin)

Sequence of Lysine-specific demethylase 5A (P29375 whole entry): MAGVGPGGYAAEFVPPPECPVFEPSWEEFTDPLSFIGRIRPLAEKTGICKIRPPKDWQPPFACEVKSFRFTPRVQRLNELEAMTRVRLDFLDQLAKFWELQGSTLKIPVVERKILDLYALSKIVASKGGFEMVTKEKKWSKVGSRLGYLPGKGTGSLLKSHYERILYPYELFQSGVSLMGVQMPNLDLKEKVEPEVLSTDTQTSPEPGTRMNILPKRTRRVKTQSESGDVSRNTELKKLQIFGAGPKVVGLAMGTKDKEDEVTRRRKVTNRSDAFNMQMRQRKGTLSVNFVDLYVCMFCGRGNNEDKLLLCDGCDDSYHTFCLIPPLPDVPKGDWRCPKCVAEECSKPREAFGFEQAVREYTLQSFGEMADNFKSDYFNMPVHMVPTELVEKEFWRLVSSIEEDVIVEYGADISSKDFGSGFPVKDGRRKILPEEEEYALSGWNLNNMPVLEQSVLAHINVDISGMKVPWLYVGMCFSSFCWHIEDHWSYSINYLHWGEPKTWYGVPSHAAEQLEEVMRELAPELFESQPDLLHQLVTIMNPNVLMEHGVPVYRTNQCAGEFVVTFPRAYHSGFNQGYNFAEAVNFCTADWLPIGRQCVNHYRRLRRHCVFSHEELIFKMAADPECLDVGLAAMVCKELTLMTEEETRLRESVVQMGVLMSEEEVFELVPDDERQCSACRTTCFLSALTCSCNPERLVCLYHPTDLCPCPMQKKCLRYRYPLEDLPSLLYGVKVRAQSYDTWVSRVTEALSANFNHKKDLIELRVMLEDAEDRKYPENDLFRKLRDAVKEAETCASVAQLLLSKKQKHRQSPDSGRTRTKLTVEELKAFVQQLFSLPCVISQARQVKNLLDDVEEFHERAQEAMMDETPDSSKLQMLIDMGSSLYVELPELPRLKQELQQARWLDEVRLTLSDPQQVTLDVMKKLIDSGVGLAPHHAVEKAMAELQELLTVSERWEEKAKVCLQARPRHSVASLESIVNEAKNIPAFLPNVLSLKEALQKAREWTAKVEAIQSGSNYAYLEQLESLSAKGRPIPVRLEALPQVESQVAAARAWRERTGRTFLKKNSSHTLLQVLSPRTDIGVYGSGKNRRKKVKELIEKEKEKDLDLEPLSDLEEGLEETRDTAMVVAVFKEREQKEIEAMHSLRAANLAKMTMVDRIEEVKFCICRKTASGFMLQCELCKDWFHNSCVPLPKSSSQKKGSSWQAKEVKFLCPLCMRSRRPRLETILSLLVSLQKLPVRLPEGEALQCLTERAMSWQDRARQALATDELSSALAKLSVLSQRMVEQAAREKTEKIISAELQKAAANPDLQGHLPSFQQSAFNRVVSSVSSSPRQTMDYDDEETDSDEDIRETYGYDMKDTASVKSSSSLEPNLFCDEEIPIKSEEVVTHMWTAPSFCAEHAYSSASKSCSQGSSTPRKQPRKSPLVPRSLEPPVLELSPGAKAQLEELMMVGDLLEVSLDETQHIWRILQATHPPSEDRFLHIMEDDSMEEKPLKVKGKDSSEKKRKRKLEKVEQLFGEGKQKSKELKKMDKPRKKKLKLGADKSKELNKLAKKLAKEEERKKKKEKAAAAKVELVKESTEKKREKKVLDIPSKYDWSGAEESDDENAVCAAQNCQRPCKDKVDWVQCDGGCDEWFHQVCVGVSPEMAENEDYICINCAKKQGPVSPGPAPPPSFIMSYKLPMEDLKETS
Sequence of Lysine-specific demethylase 5C (P41229 whole entry): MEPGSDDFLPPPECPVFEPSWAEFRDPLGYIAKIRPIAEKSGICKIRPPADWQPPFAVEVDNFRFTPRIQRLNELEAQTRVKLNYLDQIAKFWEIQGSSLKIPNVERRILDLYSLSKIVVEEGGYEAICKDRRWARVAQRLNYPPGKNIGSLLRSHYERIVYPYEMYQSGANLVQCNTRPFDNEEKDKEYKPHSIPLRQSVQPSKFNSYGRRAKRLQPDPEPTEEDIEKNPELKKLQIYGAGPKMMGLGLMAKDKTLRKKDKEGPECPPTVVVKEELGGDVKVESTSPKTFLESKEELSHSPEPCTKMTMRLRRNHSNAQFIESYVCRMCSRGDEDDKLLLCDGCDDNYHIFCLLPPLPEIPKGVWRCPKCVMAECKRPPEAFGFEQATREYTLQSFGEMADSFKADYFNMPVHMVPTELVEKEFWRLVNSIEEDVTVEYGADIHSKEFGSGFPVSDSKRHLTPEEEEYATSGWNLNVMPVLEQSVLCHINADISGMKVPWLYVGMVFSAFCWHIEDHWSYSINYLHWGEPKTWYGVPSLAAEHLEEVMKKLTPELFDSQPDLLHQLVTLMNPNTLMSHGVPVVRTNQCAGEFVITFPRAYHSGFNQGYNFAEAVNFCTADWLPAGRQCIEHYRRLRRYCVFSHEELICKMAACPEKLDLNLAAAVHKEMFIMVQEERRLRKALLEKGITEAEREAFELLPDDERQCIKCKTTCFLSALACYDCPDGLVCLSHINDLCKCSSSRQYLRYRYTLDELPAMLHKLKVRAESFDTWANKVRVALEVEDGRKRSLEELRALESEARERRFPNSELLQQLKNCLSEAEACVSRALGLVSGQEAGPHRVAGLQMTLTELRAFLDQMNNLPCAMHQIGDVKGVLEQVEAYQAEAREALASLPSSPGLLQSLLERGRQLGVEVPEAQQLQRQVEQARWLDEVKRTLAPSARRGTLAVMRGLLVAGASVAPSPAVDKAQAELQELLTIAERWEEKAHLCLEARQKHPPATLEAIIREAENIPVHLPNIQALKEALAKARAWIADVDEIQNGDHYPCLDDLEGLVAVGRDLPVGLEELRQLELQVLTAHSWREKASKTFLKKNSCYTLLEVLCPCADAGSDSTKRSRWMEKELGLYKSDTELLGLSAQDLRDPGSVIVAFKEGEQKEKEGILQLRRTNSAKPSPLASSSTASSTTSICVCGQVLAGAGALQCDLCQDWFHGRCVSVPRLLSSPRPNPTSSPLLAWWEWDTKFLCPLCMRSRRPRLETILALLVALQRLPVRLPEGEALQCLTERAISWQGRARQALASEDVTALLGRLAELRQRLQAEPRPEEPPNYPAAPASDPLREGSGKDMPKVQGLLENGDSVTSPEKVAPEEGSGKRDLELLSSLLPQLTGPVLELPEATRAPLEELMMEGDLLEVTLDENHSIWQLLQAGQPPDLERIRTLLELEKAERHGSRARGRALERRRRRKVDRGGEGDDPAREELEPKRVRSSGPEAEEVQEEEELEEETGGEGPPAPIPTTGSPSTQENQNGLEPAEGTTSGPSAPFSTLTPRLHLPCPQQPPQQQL
Sequence of Histone lysine demethylase PHF8 (Homo sapiens) (Q9UPP1 whole entry): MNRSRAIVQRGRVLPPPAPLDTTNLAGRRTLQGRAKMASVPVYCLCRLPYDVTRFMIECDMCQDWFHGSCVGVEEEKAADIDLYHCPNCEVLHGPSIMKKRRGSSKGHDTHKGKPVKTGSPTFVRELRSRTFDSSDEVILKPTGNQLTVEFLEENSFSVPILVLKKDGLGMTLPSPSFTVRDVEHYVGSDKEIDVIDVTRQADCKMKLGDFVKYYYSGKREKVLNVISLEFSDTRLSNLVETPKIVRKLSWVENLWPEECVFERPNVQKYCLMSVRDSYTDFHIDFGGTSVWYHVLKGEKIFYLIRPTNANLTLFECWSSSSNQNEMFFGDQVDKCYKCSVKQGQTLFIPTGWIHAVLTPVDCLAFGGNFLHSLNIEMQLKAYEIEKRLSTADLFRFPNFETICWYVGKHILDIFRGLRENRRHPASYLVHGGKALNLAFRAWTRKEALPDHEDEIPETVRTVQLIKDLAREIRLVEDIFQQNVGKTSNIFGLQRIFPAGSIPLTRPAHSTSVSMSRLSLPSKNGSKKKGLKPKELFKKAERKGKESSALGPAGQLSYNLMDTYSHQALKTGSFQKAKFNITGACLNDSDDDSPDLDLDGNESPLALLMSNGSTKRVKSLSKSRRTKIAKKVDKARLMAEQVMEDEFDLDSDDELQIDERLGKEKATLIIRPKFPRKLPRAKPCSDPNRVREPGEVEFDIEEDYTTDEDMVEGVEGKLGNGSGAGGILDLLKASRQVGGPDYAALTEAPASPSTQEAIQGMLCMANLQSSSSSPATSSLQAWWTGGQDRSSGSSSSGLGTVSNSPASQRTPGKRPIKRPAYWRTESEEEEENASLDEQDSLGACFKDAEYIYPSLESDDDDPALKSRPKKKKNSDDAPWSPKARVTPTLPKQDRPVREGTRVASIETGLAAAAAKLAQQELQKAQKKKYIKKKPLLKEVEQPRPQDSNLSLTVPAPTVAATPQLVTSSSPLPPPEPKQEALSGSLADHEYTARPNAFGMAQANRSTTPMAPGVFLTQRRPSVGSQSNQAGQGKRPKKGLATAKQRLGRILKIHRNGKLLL

SMILES	IC50 [1] [nM]	EC50 [2] [nM]	also measured
CC(C)c1c(-c2ccco2)[nH]c2c(C#N)cnn2c1=O	6.2	6700	–
CC(C)c1c(Cc2ccccc2)[nH]c2c(C#N)cnn2c1=O	11.9	> 30000	–
Cc1ccc(-c2[nH]c3c(C#N)cnn3c(=O)c2C(C)C)cc1	20.3	–	–
CC(C)c1c(-c2cccc(OC(F)(F)F)c2)[nH]c2c(C#N)cnn2c1=O	28.9	–	–
Cc1[nH]c2c(C#N)cnn2c(=O)c1C(C)C	9.3	13800	–
C=C(C)c1c(-c2ccccc2)[nH]c2c(C#N)cnn2c1=O	24.7	–	–
CC(C)c1c(-c2cnn(C3CCC3)c2)[nH]c2c(C#N)cnn2c1=O	11.2	870	fraction unbound [3]: 0.004; logD [4]: 1.3
CC(C)c1c(-c2ccc(OC(F)(F)F)cc2)[nH]c2c(C#N)cnn2c1=O	35.9	–	–
CC(C)c1c(-c2cccc(C(F)(F)F)c2)[nH]c2c(C#N)cnn2c1=O	–	7500	–
CC(C)c1c[nH]c2c(C#N)cnn2c1=O	28.3	–	–
CCc1[nH]c2c(C#N)cnn2c(=O)c1C(C)C	9.5	12100	–
CC(C)c1c(-c2cnn(CCC#N)c2)[nH]c2c(C#N)cnn2c1=O	10.1	2900	fraction unbound [3]: 0.066; logD [4]: -0.45
N#Cc1cnn2c(=O)c(C3CCC3)c(-c3ccccc3)[nH]c12	9.2	> 30000	–
CC(C)c1c(-c2cnn(C3COC3)c2)[nH]c2c(C#N)cnn2c1=O	15.9	8300	fraction unbound [3]: 0.04; logD [4]: -0.1
CC(C)c1c(-c2cn[nH]c2)[nH]c2c(C#N)cnn2c1=O	5.3	1200	fraction unbound [3]: 0.026
CC(C)c1c(N2CCCCC2)[nH]c2c(C#N)cnn2c1=O	63.2	–	–
CCC(C)c1c(-c2ccccc2)[nH]c2c(C#N)cnn2c1=O (racemic)	–	28400	–
CC(C)c1c(-c2ccc(C(F)(F)F)cc2)[nH]c2c(C#N)cnn2c1=O	18.2	–	–
COCCn1cc(-c2[nH]c3c(C#N)cnn3c(=O)c2C(C)C)cn1	10.4	1800	fraction unbound [3]: 0.033; logD [4]: 0.4
CC(C)c1c(-c2cnn(C3CC3)c2)[nH]c2c(C#N)cnn2c1=O	7.9	1300	fraction unbound [3]: 0.008; logD [4]: 0.74
CC(C)c1c(-c2cnn(-c3ccccc3)c2)[nH]c2c(C#N)cnn2c1=O	5.6	1700	bioavailability [5]: 21.3%; Vd [6]: 0.63 L/kg; fraction unbound [3]: 0.001; half-life [7]: 66 min; logD [4]: 1.8; clearance [8]: 7.7 mL/min/kg

SMILES	IC50 [1] [nM]	EC50 [2] [nM]	also measured
C=Cc1c(-c2ccccc2)[nH]c2c(C#N)cnn2c1=O	20.1	–	–
CC(C)c1c(Oc2ccccc2)[nH]c2c(C#N)cnn2c1=O	18	> 30000	pKa [9]: 9.8
N#Cc1cnn2c(=O)c(Br)c(-c3ccccc3)[nH]c12	29.3	–	–
CC(CO)c1c(-c2ccccc2)[nH]c2c(C#N)cnn2c1=O (configuration not stated)	29	–	–
C#CCc1c(-c2ccccc2)[nH]c2c(C#N)cnn2c1=O	21.1	–	–
CC(C)c1c(-c2cnn(C)c2)[nH]c2c(C#N)cnn2c1=O	13.3	2000	bioavailability [5]: 61.3%; Vd [6]: 0.6 L/kg; fraction unbound [3]: 0.011; half-life [7]: 10.2 min; logD [4]: 0.4; clearance [8]: 59.9 mL/min/kg
CC(C)c1c(-c2cccnc2)[nH]c2c(C#N)cnn2c1=O	12.3	9300	–
CC(C)c1c(Nc2ccccc2)[nH]c2c(C#N)cnn2c1=O	27.5	> 30000	pKa [9]: 8.2
CC(C)c1c(-c2cncnc2)[nH]c2c(C#N)cnn2c1=O	–	> 30000	–
CC(C)c1c(-c2ccccc2)[nH]c2c(C#N)cnn2c1=O	–	–	pKa [10]: 6
CCn1cc(-c2[nH]c3c(C#N)cnn3c(=O)c2C(C)C)cn1	–	2300	fraction unbound [3]: 0.005; logD [4]: 0.66
C=CC(C)c1c(-c2ccccc2)[nH]c2c(C#N)cnn2c1=O (racemic)	15.5	16400	–
CC(C)c1c(N(C)C)[nH]c2c(C#N)cnn2c1=O	76.6	–	–
CC(C)c1c(/C=C/c2ccccc2)[nH]c2c(C#N)cnn2c1=O	17.5	–	–
COc1cc(-c2[nH]c3c(C#N)cnn3c(=O)c2C(C)C)ccn1	31.6	–	–
CC(C)c1c(-c2cnn(C(C)(C)C)c2)[nH]c2c(C#N)cnn2c1=O	15.1	340	inhibition [11]: inactive; bioavailability [5]: 100%; fCmax [12]: 5.2 µM; Vd [6]: 0.44 L/kg; IC50 [13]: 4.7 nM; fraction unbound [3]: 0.012; half-life [7]: 78 min; inhibition [14]: inactive; logD [4]: 1.4; clearance [8]: 5 mL/min/kg; inhibition [15]: inactive; Cmax [16]: 206 µM; fraction unbound [17]: 0.025; IC50 [18]: 65.5 nM; inhibition [19]: inactive; inhibition [20]: inactive
CC(C)c1c(-c2cnn(C(C)C)c2)[nH]c2c(C#N)cnn2c1=O	13.8	440	bioavailability [5]: 69.5%; Vd [6]: 0.54 L/kg; fraction unbound [3]: 0.013; half-life [7]: 36.6 min; logD [4]: 0.93; clearance [8]: 15.7 mL/min/kg
C#CC(C)c1c(-c2ccccc2)[nH]c2c(C#N)cnn2c1=O (racemic)	12.8	11300	–
COC(=O)c1c(-c2ccccc2)[nH]c2c(C#N)cnn2c1=O	319	–	–
CC(C)c1c(-c2ccc(Cl)cc2)[nH]c2c(C#N)cnn2c1=O	20.4	–	–
CC(C)c1c(CCc2ccccc2)[nH]c2c(C#N)cnn2c1=O	13.1	> 30000	–
